Experimental data: patent publication US12516131B2, “Methods for preventing acute kidney injury” (University of Maryland, Baltimore, priority 2018, dated 2026)
Read-outs that look alike come from different tables or passages of the source.

Experiments:
[1] = Lability of reconstituted/diluted DIGIFAB (ouabain binding capacity after storage), protection by E-64; format: physicochemical; conditions: E-64 at final concentration 1 μM in diluted DIGIFAB
Text: To maintain the immuno-neutralizing activity of stored dilute DIGIFAB samples, we tested the effect of the irreversible protease (primarily papain) inhibitor, E-64.

[2] = tested on: renal ischemia/reperfusion (RIR) in Wistar rats; test: Example 1: plasma creatinine in rats following renal ischemia/reperfusion (45 min bilateral renal pedicle clamping); format: in vivo, rat; conditions: Ouabain infusion (10 μg/kg/day) / Saline injection; n=9; ±SE
Procedure: FIG. 7. Effect of DIGIFAB on plasma creatinine in rats following renal ischemia/reperfusion (RIR). Normal male Wistar rats were implanted on “Day 0” with a subcutaneous minipump to deliver ouabain (10 μg/kg/day: open symbols) or vehicle (6 μl/day; solid symbols). Beginning on Day 13, half of the ouabain-infused rats and half of the vehicle-infused rats were injected with DigiFab (triangles), and the remainder (circles) were injected with an equal volume of saline: The DigiFab-treated rats received 0.2 ml DigiFab (10 mg/ml) at 15 hr and 6 hr, and 0.1 ml DigiFab 1 hr pre-operatively. […] Plasma creatinine was measured with a commercial creatinine enzymatic assay kit. […] The subsequent decline toward baseline (measured at 72 hrs; i.e., Day 17) was more rapid (i.e., the slope was steeper) in the DigiFab-injected rats than in the saline-injected rats. […]
Male Wistar ICS rats (˜300 g) on normal diet were implanted on “Day 0” with a subcutaneous minipump to deliver ouabain—see FIG. 7—(10 μg/kg/day; open symbols) or vehicle (6 μl/day; solid symbols). […] Plasma creatinine was measured after ultrafiltration with 10K filters using a slightly modified rat creatinine enzymatic assay kit (Crystal Chem, Inc., Elk Grove Village, IL). […] The subsequent decline toward baseline (measured at 72 hrs; i.e., Day 17) was more rapid (i.e., the slope was steeper) in the DigiFab-injected rats than in the saline-injected rats. […]

[3] = rats, cited from earlier work
[4] = tested on: ischemia-induced renal injury; conditions: somewhat similar rat model; cited from earlier work

CC(C)C[C@H](NC(=O)[C@H]1C[C@@H]1C(=O)O)C(=O)NCCCCNC(=N)N [E-64, (1S,2S)-2-(((S)-1-((4-guanidinobutyl)amino)-4-methyl-1-oxopentan-2-yl)carbamoyl)cyclopropanecarboxylic acid]
effect of E-64 on stability of DIGIFAB's ouabain binding capacity [1]: markedly improved the stability

C[C@@H]1O[C@@H](O[C@H]2C[C@@H](O)[C@]3(CO)[C@H]4[C@H](O)C[C@]5(C)[C@@H](C6=CC(=O)OC6)CC[C@]5(O)[C@@H]4CC[C@]3(O)C2)[C@H](O)[C@H](O)[C@H]1O [Ouabain]
Percent Recovery of plasma creatinine toward baseline, 24 to 72 hrs post-op [2]: 38.6±17.5% | steady state plasma level ([3]; ouabain infused chronically at 3 μg/Kg/24 hr): ~1.95 nM | steady state plasma level ([3]; ouabain infused chronically at 10 μg/Kg/24 hr): ~2.2 nM | steady state plasma level ([3]; ouabain infused chronically at 30 μg/Kg/24 hr): ~4.8 nM

C[C@]12CC[C@H](O)C[C@H]1CC[C@@H]1[C@@H]2CC[C@]2(C)[C@@](O)(c3ccoc3)CC[C@]12O [rostafuroxin]
effect on ischemia-induced renal injury [4]: attenuated ischemia-induced renal injury
